Source: patent US20230126893A1, “[(1,4,5-TRISUBSTITUTED-1H-PYRAZOL-3-YL)SULFANYL]ACETIC ACID DERIVATIVES, SALTS THEREOF, AND USE THEREOF AS ACTIVE HERBICIDAL INGREDIENTS” (BAYER AKTIENGESELLSCHAFT, priority 2020, published 2023)

Test system: Echinochloa crus-galli
Assay: Post-emergence herbicidal effect against ECHCG
Type: in vivo
Conditions: 1280 g/ha, visual score after about 3 weeks, 100% = plants have died, 0% = like control plants
Outline: (§1)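 Visual score, % action vs untreated controls (100% = plants dead, 0% = like controls), read ~3 wk after spraying. Greenhouse plants in sandy loam, one-leaf stage, 2–3 wk post-sowing. WP/EC as aqueous spray, 600–800 l/ha, 0.2% wetting agent.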

Row | Structure (SMILES) | Post-emergence action against ECHCG
1 | CCOC(=O)C[S+]([O-])c1nn(-c2ccccc2F)c(-c2cncc(Cl)c2)c1Br (stereo not drawn) [II-013] | 100%

Test system: Veronica persica
Assay: Post-emergence herbicidal effect against VERPE
Type: in vivo
Conditions: 1280 g/ha, visual assessment about 3 weeks after treatment, 100% = plants have died, 0% = like control plants
Outline: as §1

Row | Structure (SMILES) | Post-emergence action against VERPE
2 | CCOC(=O)C[S+]([O-])c1nn(-c2ccccc2F)c(-c2cncc(Cl)c2)c1Br (stereo not drawn) [II-013] | 100%

Test system: Setaria viridis
Assay: Post-emergence herbicidal effect against SETVI
Type: in vivo
Conditions: 1280 g/ha, visual assessment about 3 weeks after treatment, 100% = plants have died, 0% = like control plants
Outline: as §1

Row | Structure (SMILES) | Post-emergence action against SETVI
3 | CCOC(=O)C[S+]([O-])c1nn(-c2ccccc2F)c(-c2cncc(Cl)c2)c1Br (stereo not drawn) [II-013] | 90%

Test system: Setaria viridis
Assay: Pre-emergence herbicidal effect against SETVI
Type: in vivo
Conditions: 1280 g/ha, visual score after 3 weeks, 100% = plants have died, 0% = like control plants
Outline: (§2)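 Pre-emergence soil-surface spray, WP/EC formulations in water at 600 to 800 L/ha plus 0.2% wetting agent, sandy loam, greenhouse, visual % damage vs untreated at 3 weeks (100% = plants dead, 0% = like control).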

Row | Structure (SMILES) | Pre-emergence action against SETVI
4 | CCOC(=O)C[S+]([O-])c1nn(-c2ccccc2F)c(-c2cncc(Cl)c2)c1Br (stereo not drawn) [II-013] | 100%

Test system: Abutylon threophrasti
Assay: Post-emergence herbicidal effect against ABUTH
Type: in vivo
Conditions: 1280 g/ha, visual assessment about 3 weeks after treatment, 100% = plants have died, 0% = like control plants
Outline: as §1

Row | Structure (SMILES) | Post-emergence action against ABUTH
5 | CCOC(=O)C[S+]([O-])c1nn(-c2ccccc2F)c(-c2cncc(Cl)c2)c1Br (stereo not drawn) [II-013] | 100%

Test system: Abutylon threophrasti
Assay: Pre-emergence herbicidal effect against ABUTH
Type: in vivo
Conditions: 1280 g/ha, visual score after 3 weeks, 100% = plants have died, 0% = like control plants
Text: (§3) 1. Pre-emergence herbicidal effect and crop plant compatibility Seeds of monocotyledonous and dicotyledonous weed plants and crop plants are laid out in sandy loam soil in wood-fibre pots and covered with soil. The compounds of the invention, formulated in the form of wettable powders (WP) or as emulsion concentrates (EC), are then applied to the surface of the covering soil as aqueous suspension or emulsion at a water application rate equating to 600 to 800 L/ha with addition of 0.2% wetting agent. After the treatment, the pots are placed in a greenhouse and kept under good growth conditions for the trial plants. The damage to the test plants is scored visually after a test period of 3 weeks by comparison with untreated controls (herbicidal activity in percent (%): 100% activity=the plants have died, 0% activity=like control plants). [table]

Row | Structure (SMILES) | Pre-emergence action against ABUTH
6 | CCOC(=O)C[S+]([O-])c1nn(-c2ccccc2F)c(-c2cncc(Cl)c2)c1Br (stereo not drawn) [II-013] | 90%

Test system: Echinochloa crus-galli
Assay: Pre-emergence herbicidal effect against ECHCG
Type: in vivo
Conditions: 1280 g/ha, visual score after 3 weeks, 100% = plants have died, 0% = like control plants
Outline: as §2

Row | Structure (SMILES) | Pre-emergence action against ECHCG
7 | CCOC(=O)C[S+]([O-])c1nn(-c2ccccc2F)c(-c2cncc(Cl)c2)c1Br (stereo not drawn) [II-013] | 100%

Test system: Veronica persica
Assay: Pre-emergence herbicidal effect against VERPE
Type: in vivo
Conditions: 1280 g/ha, visual score after 3 weeks, 100% = plants have died, 0% = like control plants
Outline: as §2

Row | Structure (SMILES) | Pre-emergence action against VERPE
8 | CCOC(=O)C[S+]([O-])c1nn(-c2ccccc2F)c(-c2cncc(Cl)c2)c1Br (stereo not drawn) [II-013] | 100%

Test system: Tripleurospermum inodorum
Assay: Pre-emergence herbicidal effect against MATIN
Type: in vivo
Conditions: 1280 g/ha, visual score after 3 weeks, 100% = plants have died, 0% = like control plants
Outline: as §2

Row | Structure (SMILES) | Pre-emergence action against MATIN
9 | CCOC(=O)C[S+]([O-])c1nn(-c2ccccc2F)c(-c2cncc(Cl)c2)c1Br (stereo not drawn) [II-013] | 100%

Test system: Digitaria sanguinalis
Assay: Pre-emergence herbicidal effect against DIGSA
Type: in vivo
Conditions: 1280 g/ha, visual score after 3 weeks, 100% = plants have died, 0% = like control plants
Outline: as §2

Row | Structure (SMILES) | Pre-emergence action against DIGSA
10 | CCOC(=O)C[S+]([O-])c1nn(-c2ccccc2F)c(-c2cncc(Cl)c2)c1Br (stereo not drawn) [II-013] | 100%

Test system: Tripleurospermum inodorum
Assay: Post-emergence herbicidal effect against MATIN
Type: in vivo
Conditions: 1280 g/ha, visual assessment about 3 weeks after treatment, 100% = plants have died, 0% = like control plants
Outline: as §1

Row | Structure (SMILES) | Post-emergence action against MATIN
11 | CCOC(=O)C[S+]([O-])c1nn(-c2ccccc2F)c(-c2cncc(Cl)c2)c1Br (stereo not drawn) [II-013] | 100%

Test system: Stellaria media
Assay: Pre-emergence herbicidal effect against STEME
Type: in vivo
Conditions: 1280 g/ha, visual score after 3 weeks, 100% = plants have died, 0% = like control plants
Outline: as §2

Row | Structure (SMILES) | Pre-emergence action against STEME
12 | CCOC(=O)C[S+]([O-])c1nn(-c2ccccc2F)c(-c2cncc(Cl)c2)c1Br (stereo not drawn) [II-013] | 100%

Test system: Amaranthus retroflexus
Assay: Pre-emergence herbicidal effect against AMARE
Type: in vivo
Conditions: 1280 g/ha, visual score after 3 weeks, 100% = plants have died, 0% = like control plants
Outline: as §2

Row | Structure (SMILES) | Pre-emergence action against AMARE
13 | CCOC(=O)C[S+]([O-])c1nn(-c2ccccc2F)c(-c2cncc(Cl)c2)c1Br (stereo not drawn) [II-013] | 100%

Test system: Lolium rigidum
Assay: Pre-emergence herbicidal effect against LOLRI
Type: in vivo
Conditions: 1280 g/ha, visual score after 3 weeks, 100% = plants have died, 0% = like control plants
Outline: as §2

Row | Structure (SMILES) | Pre-emergence action against LOLRI
14 | CCOC(=O)C[S+]([O-])c1nn(-c2ccccc2F)c(-c2cncc(Cl)c2)c1Br (stereo not drawn) [II-013] | 100%

Test system: Bassia scoparia
Assay: Post-emergence herbicidal effect against KCHSC
Type: in vivo
Conditions: 1280 g/ha, visual assessment about 3 weeks after treatment, 100% = plants have died, 0% = like control plants
Outline: as §1

Row | Structure (SMILES) | Post-emergence action against KCHSC
15 | CCOC(=O)C[S+]([O-])c1nn(-c2ccccc2F)c(-c2cncc(Cl)c2)c1Br (stereo not drawn) [II-013] | 90%

Test system: Poa annua
Assay: Pre-emergence herbicidal effect against POAAN
Type: in vivo
Conditions: 1280 g/ha, visual score after 3 weeks, 100% = plants have died, 0% = like control plants
Outline: as §2

Row | Structure (SMILES) | Pre-emergence action against POAAN
16 | CCOC(=O)C[S+]([O-])c1nn(-c2ccccc2F)c(-c2cncc(Cl)c2)c1Br (stereo not drawn) [II-013] | 100%

Test system: Amaranthus retroflexus
Assay: Post-emergence herbicidal effect against AMARE
Type: in vivo
Conditions: 1280 g/ha, visual assessment about 3 weeks after treatment, 100% = plants have died, 0% = like control plants
Outline: as §1

Row | Structure (SMILES) | Post-emergence action against AMARE
17 | CCOC(=O)C[S+]([O-])c1nn(-c2ccccc2F)c(-c2cncc(Cl)c2)c1Br (stereo not drawn) [II-013] | 90%

Test system: Bassia scoparia
Assay: Pre-emergence herbicidal effect against KCHSC
Type: in vivo
Conditions: 1280 g/ha, visual score after 3 weeks, 100% = plants have died, 0% = like control plants
Text: as §3

Row | Structure (SMILES) | Pre-emergence action against KCHSC
18 | CCOC(=O)C[S+]([O-])c1nn(-c2ccccc2F)c(-c2cncc(Cl)c2)c1Br (stereo not drawn) [II-013] | 90%

Test system: Alopecurus myosuroides
Assay: Pre-emergence herbicidal effect against ALOMY
Type: in vivo
Conditions: 1280 g/ha, visual score after 3 weeks, 100% = plants have died, 0% = like control plants
Outline: as §2

Row | Structure (SMILES) | Pre-emergence action against ALOMY
19 | CCOC(=O)C[S+]([O-])c1nn(-c2ccccc2F)c(-c2cncc(Cl)c2)c1Br (stereo not drawn) [II-013] | 100%

Test system: Poa annua
Assay: Post-emergence herbicidal effect against POAAN
Type: in vivo
Conditions: 1280 g/ha, visual assessment about 3 weeks after treatment, 100% = plants have died, 0% = like control plants
Outline: as §1

Row | Structure (SMILES) | Post-emergence action against POAAN
20 | CCOC(=O)C[S+]([O-])c1nn(-c2ccccc2F)c(-c2cncc(Cl)c2)c1Br (stereo not drawn) [II-013] | 100%

Test system: Stellaria media
Assay: Post-emergence herbicidal effect against STEME
Type: in vivo
Conditions: 1280 g/ha, visual assessment about 3 weeks after treatment, 100% = plants have died, 0% = like control plants
Outline: as §1

Row | Structure (SMILES) | Post-emergence action against STEME
21 | CCOC(=O)C[S+]([O-])c1nn(-c2ccccc2F)c(-c2cncc(Cl)c2)c1Br (stereo not drawn) [II-013] | 100%
